Assay: osmotic coefficient (dimensionless); mn = molality of the nth substance listed, in mol/kg
Conditions: Liquid, vapor pressure osmometry

CCCCCCn1cc[n+](C)c1.[Br-] [3-hexyl-1-methyl-1H-imidazolium bromide] + O
osmotic coefficient
Conditions | 298.15 K | 308.15 K | 318.15 K | 328.15 K
m1 = 0.0155 | 0.876 | 0.889 | 0.91 | 0.935
m1 = 0.021 | 0.869 | 0.87 | 0.876 | 0.911
m1 = 0.0305 | 0.854 | 0.858 | 0.866 | 0.869
m1 = 0.0467 | 0.835 | 0.838 | 0.848 | 0.861
m1 = 0.0633 | 0.815 | 0.811 | 0.816 | 0.821
m1 = 0.0819 | 0.761 | 0.763 | 0.8 | 0.815
m1 = 0.121 | 0.741 | 0.742 | 0.775 | 0.79
m1 = 0.158 | 0.703 | 0.732 | 0.754 | 0.76
m1 = 0.1845 | 0.708 | 0.727 | 0.742 | 0.75
m1 = 0.2503 | 0.67 | 0.69 | 0.702 | 0.719
m1 = 0.3312 | 0.65 | 0.659 | 0.672 | 0.67
m1 = 0.4111 | 0.602 | 0.605 | 0.625 | 0.63
m1 = 0.5114 | 0.554 | 0.585 | 0.589 | 0.592
m1 = 0.5898 | 0.54 | 0.546 | 0.555 | 0.569
m1 = 0.6829 | 0.517 | 0.513 | 0.537 | 0.544
m1 = 0.7428 | 0.488 | 0.489 | 0.509 | 0.514
m1 = 1.119 | 0.384 | 0.397 | 0.413 | 0.429
m1 = 1.686 | 0.312 | 0.322 | 0.352 | 0.362
m1 = 2.398 | 0.271 | 0.292 | 0.309 | 0.328

CCC[n+]1ccn(C)c1.[Br-] [1-methyl-3-propylimidazolium bromide] + O
osmotic coefficient
Conditions | 298.15 K | 308.15 K | 318.15 K | 328.15 K
m1 = 0.0071 | 0.942 | 0.928 | 0.961 | 0.947
m1 = 0.0141 | 0.917 | 0.925 | 0.951 | 0.95
m1 = 0.0243 | 0.903 | 0.902 | 0.925 | 0.924
m1 = 0.0338 | 0.894 | 0.904 | 0.92 | 0.926
m1 = 0.0462 | 0.89 | 0.892 | 0.91 | 0.91
m1 = 0.0667 | 0.865 | 0.875 | 0.898 | 0.896
m1 = 0.0898 | 0.855 | 0.864 | 0.874 | 0.875
m1 = 0.1081 | 0.839 | 0.851 | 0.867 | 0.864
m1 = 0.1529 | 0.82 | 0.835 | 0.857 | 0.851
m1 = 0.194 | 0.807 | 0.816 | 0.836 | 0.842
m1 = 0.2403 | 0.798 | 0.802 | 0.812 | 0.818
m1 = 0.3018 | 0.783 | 0.792 | 0.805 | 0.813
m1 = 0.3677 | 0.762 | 0.772 | 0.793 | 0.794
m1 = 0.4338 | 0.755 | 0.761 | 0.776 | 0.787
m1 = 0.5359 | 0.742 | 0.749 | 0.753 | 0.76
m1 = 0.8595 | 0.706 | 0.72 | 0.728 | 0.735
m1 = 1.029 | 0.702 | 0.714 | 0.717 | 0.724
m1 = 1.604 | 0.674 | 0.696 | 0.702 | 0.704
m1 = 2.104 | 0.676 | 0.69 | 0.694 | 0.701
m1 = 2.705 | 0.671 | 0.683 | 0.701 | 0.709
